# Laboratory results reported in US20250263370A1 (Tay Therapeutics Limited, priority 2022, published 2025).
# Where “and” joins values, the source holds several entries; their conditions need not be identical. Equal values may be shown once.
# Test system: collagen-induced arthritis
# Experiment: Collagen-induced arthritis (CIA) model in rats: body weight, paw volume, clinical scores, clinical observations; on Average detailed clinical score, left hind limb: key of the grades not given here; on Average detailed clinical score, right hind limb: key of the grades not given here; on Detailed Clinical Scores, left forelimb: key of the grades not given here; on Detailed Clinical Scores, left hind limb: key of the grades not given here; on Detailed Clinical Scores, right forelimb: key of the grades not given here; on Detailed Clinical Scores, right hind limb: key of the grades not given here; on Detailed Clinical Scores, score: key of the grades not given here; on Mean overall clinical score ± SD: key of the grades not given here; on overall clinical score: key of the grades not given here
# Conditions: for Average detailed clinical score, right hind limb / Average detailed clinical score, score / Mean overall clinical score ± SD / Average detailed clinical score, left forelimb / Average detailed clinical score, left hind limb / Average detailed clinical score, right forelimb / Overall clinical score / Detailed Clinical Scores, left forelimb / Detailed Clinical Scores, left hind limb / Detailed Clinical Scores, right forelimb / Detailed Clinical Scores, right hind limb / Detailed Clinical Scores, score: CIA rats; for Mean animal paw volume ± SD: group mean; for Overall clinical score: individual animals #1-8; for Detailed Clinical Scores, left forelimb / Detailed Clinical Scores, left hind limb / Detailed Clinical Scores, right forelimb / Detailed Clinical Scores, right hind limb / Detailed Clinical Scores, score: individual animals ID 1-8
# Protocol: Prior to be randomly placed in treatment groups, animals were weighed, and paw volume was measured. Once randomly assigned to treatment groups, on Day 0, animals in groups 2-9 were immunized by subcutaneous injection at the base of the tail.
# The immunization comprised 100 μL of the CFA+Collagen emulsion (prepared according to the method in Experimental Method A). Animals in group one received no immunization. Seven days after the first injection, animals in groups 2-9 received a booster immunization comprising 200 μL of the IFA+Collagen emulsion (prepared according to the method in Experimental Method A).
# Starting on Day 0, animals in group 1 and 2 were administered daily doses of the vehicle per os (P.O.) for 21 days. […] The twice daily doses for animals in groups 4-9 were 8 hours apart (e.g., the first dose at 8:00 AM and the second dose at 4:00 PM).
# Body weight of all animals was recorded daily for the 21-day period. Blind clinical scores on all four limbs were conducted for all animals in the study. Animals were assessed prior to receiving their first dose of the compound or control, and scores for each limb were combined to a total daily score for each animal. Clinical score assessments were performed on Day 0, 6, 12, 13, 14, 15, 18, 19, and 21 (for a total of 9 daily scores).
# Paw volume was recorded for each animal on Day 0, 6, 12, 13, 14, 15, 18, 19, and 21 (for a total of 9 measurements). To measure paw volume, animals were gently held with one hand while the hind paw was placed into a plethysmometer with the other hand. Lipid displacement by the paw was recorded and used to represent paw volume.
# All data measured and recorded was analyzed using SPSS 16.0 software. Groups were compared using one-way ANOVA and significance was set at p<0.05.
structure (smiles),measurement,setting,value
"CNC(=O)c1[nH]c(C(=O)NC2CCC2)cc1O[C@@H](C)c1ccccc1 (stereo in doubt) [Example 101, N^5-cyclobutyl-N^2-methyl-3-(1-phenylethoxy)-1H-pyrrole-2,5-dicarboxamide]","Average detailed clinical score, right hind limb","Day 0, 30 mg/kg",0.00
same,"Average detailed clinical score, score","Day 0, 30 mg/kg",0.00
same,Mean overall clinical score ± SD,"Day 0, 30 mg/kg",0 ± 0
same,Mean animal paw volume ± SD,"Day 6, L paw, 3 mg/kg",1.34 mL
same,Mean animal paw volume ± SD,"Day 6, L paw, 10 mg/kg",1.32 mL
same,Mean animal paw volume ± SD,"Day 6, L paw, 30 mg/kg",1.33 mL
same,Mean animal paw volume ± SD,"Day 6, R paw, 3 mg/kg",1.35 mL
same,Mean animal paw volume ± SD,"Day 6, R paw, 10 mg/kg",1.32 mL
same,Mean animal paw volume ± SD,"Day 6, R paw, 30 mg/kg",1.33 mL
same,"Average detailed clinical score, left forelimb","Day 6, 3 mg/kg",0.00
same,"Average detailed clinical score, left hind limb","Day 6, 3 mg/kg",0.00
same,"Average detailed clinical score, right forelimb","Day 6, 3 mg/kg",0.00
same,"Average detailed clinical score, right hind limb","Day 6, 3 mg/kg",0.00
same,"Average detailed clinical score, score","Day 6, 3 mg/kg",0.00
same,Mean overall clinical score ± SD,"Day 6, 3 mg/kg",0 ± 0
same,Overall clinical score,"Day 6, 3 mg/kg",0
same,"Average detailed clinical score, left forelimb","Day 6, 10 mg/kg",0.00
same,"Average detailed clinical score, left hind limb","Day 6, 10 mg/kg",0.00
same,"Average detailed clinical score, right forelimb","Day 6, 10 mg/kg",0.00
same,"Average detailed clinical score, right hind limb","Day 6, 10 mg/kg",0.00
same,"Average detailed clinical score, score","Day 6, 10 mg/kg",0.00
same,Mean overall clinical score ± SD,"Day 6, 10 mg/kg",0 ± 0
same,Overall clinical score,"Day 6, 10 mg/kg",0
same,"Average detailed clinical score, left forelimb","Day 6, 30 mg/kg",0.00
same,"Average detailed clinical score, left hind limb","Day 6, 30 mg/kg",0.00
same,"Average detailed clinical score, right forelimb","Day 6, 30 mg/kg",0.00
same,"Average detailed clinical score, right hind limb","Day 6, 30 mg/kg",0.00
same,"Average detailed clinical score, score","Day 6, 30 mg/kg",0.00
same,Mean overall clinical score ± SD,"Day 6, 30 mg/kg",0 ± 0
same,Mean animal paw volume ± SD,"Day 12, L paw, 3 mg/kg",1.41 mL
same,Mean animal paw volume ± SD,"Day 12, L paw, 10 mg/kg",1.41 mL
same,Mean animal paw volume ± SD,"Day 12, L paw, 30 mg/kg",1.33 mL
same,Mean animal paw volume ± SD,"Day 12, R paw, 3 mg/kg",1.40 mL
same,Mean animal paw volume ± SD,"Day 12, R paw, 10 mg/kg",1.41 mL
same,Mean animal paw volume ± SD,"Day 12, R paw, 30 mg/kg",1.36 mL
same,"Detailed Clinical Scores, left forelimb","Day 12, 3 mg/kg",0
same,"Detailed Clinical Scores, left hind limb","Day 12, 3 mg/kg",0 (7×) and 1
same,"Detailed Clinical Scores, right forelimb","Day 12, 3 mg/kg",0 (6×) and 1 (2×)
same,"Detailed Clinical Scores, right hind limb","Day 12, 3 mg/kg",0
same,"Detailed Clinical Scores, score","Day 12, 3 mg/kg",0 (5×) and 1 (3×)
same,"Detailed Clinical Scores, left forelimb","Day 12, 10 mg/kg",0
same,"Detailed Clinical Scores, left hind limb","Day 12, 10 mg/kg",1 (2×) and 0 (6×)
same,"Detailed Clinical Scores, right forelimb","Day 12, 10 mg/kg",0
same,"Detailed Clinical Scores, right hind limb","Day 12, 10 mg/kg",0 (7×) and 2
same,"Detailed Clinical Scores, score","Day 12, 10 mg/kg",1 (2×) and 0 (5×) and 2
same,"Detailed Clinical Scores, left forelimb","Day 12, 30 mg/kg",0
same,"Detailed Clinical Scores, left hind limb","Day 12, 30 mg/kg",0
same,"Detailed Clinical Scores, right forelimb","Day 12, 30 mg/kg",0
same,"Detailed Clinical Scores, right hind limb","Day 12, 30 mg/kg",1 and 0 (7×)
same,"Detailed Clinical Scores, score","Day 12, 30 mg/kg",1 and 0 (7×)
same,"Average detailed clinical score, left forelimb","Day 12, 3 mg/kg",0.00
same,"Average detailed clinical score, left hind limb","Day 12, 3 mg/kg",0.13
same,"Average detailed clinical score, right forelimb","Day 12, 3 mg/kg",0.25
same,"Average detailed clinical score, right hind limb","Day 12, 3 mg/kg",0.00
same,"Average detailed clinical score, score","Day 12, 3 mg/kg",0.38
same,Mean overall clinical score ± SD,"Day 12, 3 mg/kg",0 ± 1
same,Overall clinical score,"Day 12, 3 mg/kg",0 (5×) and 1 (3×)
same,"Average detailed clinical score, left forelimb","Day 12, 10 mg/kg",0.00
same,"Average detailed clinical score, left hind limb","Day 12, 10 mg/kg",0.25
same,"Average detailed clinical score, right forelimb","Day 12, 10 mg/kg",0.00
